Results published in patent EP4603105A1, “PHARMACEUTICAL COMPOSITION CONTAINING CYCLIC COMPOUND HAVING SELECTIVE KRAS INHIBITORY EFFECT AGAINST HRAS AND NRAS” (CHUGAI SEIYAKU KABUSHIKI KAISHA, priority 2022, dated 2024).
Like-named read-outs stand apart in the source and are kept apart here.

Experiments:
[1] = tested on: human lung cancer strain NCI-H441; test: NCI-H441 cell proliferation inhibitory activity (CellTiter-Glo, 4 days); type: cell-based; settings: read-out: NCl-H441 IC50
Method in brief: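 Proliferation was scored by […] measured after the reagent was added to cultures kept at 37°C in 5% carbon dioxide.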

HRAS wild-type protein = HRAS wild-type protein (Homo sapiens, UniProt P01112); test: Binding to HRAS by surface plasmon resonance (SPR), KD and KD ratio to KRAS
Chain of HRAS wild-type protein (P01112 whole entry): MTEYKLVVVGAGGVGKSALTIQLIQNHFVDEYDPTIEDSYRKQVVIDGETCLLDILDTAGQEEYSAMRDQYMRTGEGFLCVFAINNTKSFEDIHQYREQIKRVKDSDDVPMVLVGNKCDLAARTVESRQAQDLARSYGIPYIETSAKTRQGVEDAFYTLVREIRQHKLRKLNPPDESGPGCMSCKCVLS
Method in brief: (§1)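 SPR, 30°C: Avi-biotin RAS·GDP captured via Biotin CAPture (~100–300 RU); running buffer HBS pH 7.4, 1 mM DTT, 10 mM MgCl2, 0.01% Tween 20, 10 µM GDP, 4% DMSO. Single-cycle kinetics, 100 µL/min, 75 s injections; 1:1 model → KD.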

[2] = biological target: GDP-bound NRAS wild-type protein (Homo sapiens, UniProt P01111); test: Binding to NRAS by surface plasmon resonance (SPR), KD and KD ratio to KRAS
Chain of GDP-bound NRAS wild-type protein (P01111 whole entry): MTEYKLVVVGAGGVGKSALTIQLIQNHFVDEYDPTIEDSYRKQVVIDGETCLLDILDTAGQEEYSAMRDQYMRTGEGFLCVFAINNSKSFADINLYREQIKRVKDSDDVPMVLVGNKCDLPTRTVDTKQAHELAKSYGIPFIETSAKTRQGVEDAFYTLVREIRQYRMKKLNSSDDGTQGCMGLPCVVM
Method in brief: as §1

[3] = biological target: GDP-bound KRAS wild-type protein (Homo sapiens, UniProt P01116); test: Binding to KRAS by surface plasmon resonance (SPR), dissociation constant KD
Chain of GDP-bound KRAS wild-type protein (P01116 1-188 isoform P01116-2): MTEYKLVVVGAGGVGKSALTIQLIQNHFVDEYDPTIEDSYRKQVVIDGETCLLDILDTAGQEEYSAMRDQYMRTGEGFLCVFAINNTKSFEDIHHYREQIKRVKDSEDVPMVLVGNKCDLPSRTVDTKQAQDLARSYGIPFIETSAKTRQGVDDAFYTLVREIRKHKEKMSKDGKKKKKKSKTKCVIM
Method in brief: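 Single-cycle kinetics on GDP-loaded biotin-Avi RAS captured to ~100–300 RU; 75 s ascending injections, 100 µL/min, 30°C. HBS pH 7.4 + 10 mM MgCl2/10 µM GDP/4% DMSO. 1:1 fit, KD.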

[4] = ratio of KD for HRAS wild-type protein to KD for KRAS
[5] = ratio of KD for GDP-bound NRAS wild-type protein to KD for KRAS
[6] = 50% proliferation inhibitory concentration, four days
[7] = ratio of KD with respect to HRAS wild-type protein to KD with respect to KRAS
[8] = ratio of KD with respect to GDP-bound NRAS wild-type protein to KD with respect to KRAS
[9] = Single Cycle Kinetics, 1:1 binding model

Structure (SMILES)	IC50 ([1]; NCI-H441 cells, 4 days) [nM]	Kd ([3]; 1:1 binding model) [nM]	Kd ([3]; Single Cycle Kinetics) [nM]	IC50 [1, 6] [nM]	Kd [3, 9] [nM]	HRAS /KRAS (HRAS wild-type protein; [4])	NRAS /KRAS [2, 5]	HRAS /KRAS (HRAS wild-type protein; [7])	NRAS /KRAS [2, 8]
CCC[C@H]1C(=O)N[C@@H]([C@@H](C)CC)C(=O)N(C2CC2)CC(=O)N(C)[C@H]2C/C=C\CCN(C2=O)[C@@H](CC2CCC(F)(F)CC2)C(=O)N(C)CC(=O)N[C@@H](CCc2ccc(C(F)(F)F)c(OC)c2)C(=O)N2C[C@@H](C)C[C@H]2C(=O)N(C)C2(CCC2)C(=O)N(C)[C@@H](C2CCCC2)C(=O)N(C)[C@H](C(=O)N(C)C)CC(=O)N1C [PP2378]	48.3	0.88	–	–	–	A (a compound having 10 or more and less than 20 is denoted as A)	B (a compound having 3 or more and less than 10 is denoted as B)	–	–
CCO[C@@H]1C[C@H]2C(=O)NC3(CC(C)(C)C3)C(=O)N(C)[C@@H](C3CCCC3)C(=O)N(C)[C@H](C(=O)N(C)C)CC(=O)N(C)[C@@H](COC)C(=O)N[C@@H]([C@@H](C)CC)C(=O)N(C)CC(=O)N(C)[C@H]3C/C=C\CCN(C3=O)[C@@H](Cc3ccc(C)cc3)C(=O)N(C)CC(=O)N[C@@H](CCc3ccc(C(F)(F)F)c(Cl)c3)C(=O)N2C1 [PP2389]	21.3	0.079	–	–	–	B (a compound having 3 or more and less than 10 is denoted as B)	A (a compound having 10 or more and less than 20 is denoted as A)	–	–
CCC[C@H]1C(=O)N[C@@H]([C@@H](C)CC)C(=O)N(C2CC2)CC(=O)N(C)[C@H]2C/C=C\CCN(C2=O)[C@@H](Cc2ccc(C(F)(F)F)cc2)C(=O)N(C)CC(=O)N[C@@H](CCc2ccc(C(F)(F)F)c(OC)c2)C(=O)N2C[C@@H](C)C[C@H]2C(=O)N(C)C2(CCC2)C(=O)N(C)[C@@H](C2CCCC2)C(=O)N(C)[C@H](C(=O)N(C)C)CC(=O)N1C [PP2360]	2.9	0.16	–	–	–	B (a compound having 3 or more and less than 10 is denoted as B)	A (a compound having 10 or more and less than 20 is denoted as A)	–	–
CCO[C@@H]1C[C@H]2C(=O)NC3(CCC3)C(=O)N(C)[C@@H](C3CCCC3)C(=O)N(C)[C@H](C(=O)N(C)C)CC(=O)N(C)[C@@H](CC)C(=O)N[C@@H]([C@@H](C)CC)C(=O)N(C)CC(=O)N(C)[C@H]3C/C=C\CCN(C3=O)[C@@H](Cc3ccc(C(F)(F)F)cc3)C(=O)N(C)CC(=O)N[C@@H](CCc3ccc(Cl)c(Cl)c3)C(=O)N2C1 [PP1249]	–	–	–	55.4	0.18	–	–	A (a compound having 10 or more and less than 20 is denoted as A)	A (a compound having 10 or more and less than 20 is denoted as A)
CCO[C@@H]1C[C@H]2C(=O)NC3(CCC3)C(=O)N(C)[C@@H](C3CCCC3)C(=O)N(C)[C@H](C(=O)N3CCOCC3)CC(=O)N(C)[C@@H](CC)C(=O)N[C@@H]([C@@H](C)CC)C(=O)N(C)CC(=O)N(C)[C@H]3CC[C@@H](C)CN(C3=O)[C@@H](Cc3ccc(C(F)(F)F)cc3)C(=O)N(C)CC(=O)N[C@@H](CCc3cc(F)c(C(F)(F)F)c(F)c3)C(=O)N2C1 [PP1372]	–	–	–	5	0.078	–	–	B (a compound having 3 or more and less than 10 is denoted as B)	B (a compound having 3 or more and less than 10 is denoted as B)
CCCO[C@H](C)[C@@H]1NC(=O)[C@H](COCC)N(C)C(=O)C[C@@H](C(=O)N(C)CC)N(C)C(=O)[C@H](C2CCCC2)N(C)C(=O)C2(CC(C)(C)C2)NC(=O)[C@@H]2C[C@@H](OCC)CN2C(=O)[C@H](CCc2cc(F)c(C(F)(F)F)c(F)c2)NC(=O)CN(C)C(=O)[C@H](Cc2ccc(C)cc2)N2CC/C=C\C[C@@H](C2=O)N(C)C(=O)[C@@H]2CCCN2C1=O [PP2436]	126	1.6	–	–	–	A (a compound having 10 or more and less than 20 is denoted as A)	A (a compound having 10 or more and less than 20 is denoted as A)	–	–
CCO[C@@H]1C[C@H]2C(=O)NC3(CCC3)C(=O)N(C)[C@@H](C(CC)CC)C(=O)N(C)[C@H](C(=O)N(C)C)CC(=O)N(C)[C@@H](C)C(=O)N[C@@H]([C@@H](C)CC)C(=O)N(C)CC(=O)N(C)[C@H]3C/C=C\CCN(C3=O)[C@@H](Cc3ccc(C(F)(F)F)cc3)C(=O)N(C)CC(=O)N[C@@H](CCc3cc(F)c(C(F)(F)F)c(F)c3)C(=O)N2C1 [PP1199]	–	–	–	39.1	0.17	–	–	A (a compound having 10 or more and less than 20 is denoted as A)	A (a compound having 10 or more and less than 20 is denoted as A)

Continued, in another order:

IC50 ([1]; NCI-H441 cells, 4 days) [nM]	Kd ([3]; 1:1 binding model) [nM]	Kd ([3]; Single Cycle Kinetics) [nM]	IC50 [1, 6] [nM]	Kd [3, 9] [nM]	Structure (SMILES)	HRAS /KRAS (HRAS wild-type protein; [4])	NRAS /KRAS [2, 5]	HRAS /KRAS (HRAS wild-type protein; [7])	NRAS /KRAS [2, 8]
15.2	–	0.37	–	–	CCO[C@@H]1C[C@H]2C(=O)NC3(CCCC3)C(=O)N(C)[C@@H](C3CCCC3)C(=O)N(C)[C@H](C(=O)N(C)C)CC(=O)N(C)[C@@H]([C@@H](C)OC)C(=O)N[C@@H]([C@@H](C)CC)C(=O)N(C3CC3)CC(=O)N(C)[C@H]3C/C=C\CCN(C3=O)[C@@H](Cc3ccc(C(F)(F)F)cc3)C(=O)N(C)CC(=O)N[C@@H](CCc3cc(F)c(C(F)(F)F)c(F)c3)C(=O)N2C1 [PP3476]	A (a compound having 10 or more and less than 20 is denoted as A)	A (a compound having 10 or more and less than 20 is denoted as A)	–	–
11.2	–	0.13	–	–	CCC[C@H]1C(=O)N[C@@H]([C@@H](C)CC)C(=O)N(C)CC(=O)N(C)[C@H]2C/C=C\CCN(C2=O)[C@@H](Cc2ccc(C)cc2)C(=O)N(C)CC(=O)N[C@@H](CCc2ccc(C(F)(F)F)c(Cl)c2)C(=O)N2CC3(CC3)C[C@H]2C(=O)N(C)C2(CCC2)C(=O)N(C)[C@@H](C(CC)CC)C(=O)N(C)[C@H](C(=O)N(C)C)CC(=O)N1C [PP3300]	B (a compound having 3 or more and less than 10 is denoted as B)	A (a compound having 10 or more and less than 20 is denoted as A)	–	–
12	–	0.75	–	–	C#CCN1CC(=O)N(C)[C@H]2C/C=C\CCN(C2=O)[C@@H](Cc2ccc(C(F)F)cc2)C(=O)N(C)CC(=O)N[C@@H](CCc2cc(F)c(C(F)(F)F)c(F)c2)C(=O)N2C[C@H](OC(C)C)C[C@H]2C(=O)N(C)C2(CCC2)C(=O)N(C)[C@@H](C(CC)CC)C(=O)N(C)[C@H](C(=O)N(C)C)CC(=O)N(C)[C@@H](COCCC)C(=O)N[C@@H]([C@@H](C)OC)C1=O [PP3485]	A (a compound having 10 or more and less than 20 is denoted as A)	A (a compound having 10 or more and less than 20 is denoted as A)	–	–
76.7	2.4	–	–	–	CCO[C@@H]1C[C@H]2C(=O)NC3(CC(C)(C)C3)C(=O)N(C)[C@@H](C(CC)CC)C(=O)N(C)[C@H](C(=O)N(C)C)CC(=O)N(C)[C@@H](C(C)C)C(=O)N[C@@H]([C@@H](C)CC)C(=O)N(C)CC(=O)N(C)[C@H]3C/C=C\CCN(C3=O)[C@@H](CC3CCC(F)(F)CC3)C(=O)N(C)CC(=O)N[C@@H](CCc3ccc(C(F)(F)F)c(Cl)c3)C(=O)N2C1 [PP2492]	A (a compound having 10 or more and less than 20 is denoted as A)	AA (a compound having 20 or more is denoted as AA)	–	–
39.8	–	0.97	–	–	CCCO[C@@H]1C[C@H]2C(=O)NC3(CC(C)(C)C3)C(=O)N(C)[C@@H](C3CCCC3)C(=O)N(C)[C@H](C(=O)N(C)CC)CC(=O)N(C)[C@@H](COCC)C(=O)N[C@@H]([C@@H](C)CC)C(=O)N(C3CC3)CC(=O)N(C)[C@H]3C/C=C\CCN(C3=O)[C@@H](Cc3ccc(C)cc3)C(=O)N(C)CC(=O)N[C@@H](CCc3ccc(C(F)(F)F)c(OC)c3)C(=O)N2C1 [PP3466]	B (a compound having 3 or more and less than 10 is denoted as B)	A (a compound having 10 or more and less than 20 is denoted as A)	–	–
